Some test systems named below: IGROV-1; NCI-H460; UACC-257; OVCAR-3; CCRF-CEM; SK-MEL-2; HOP-92; U-251; EKVX; HCT-15; ACHN; OVCAR-4; PC-3; COLO 205; LOX IMVI; NCI-H226; T47D; A549; 786-0.
Common to all, as to assay: NCI anticancer screen, dose series, 48 h

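Method: 48-hour compound exposure of cells in 96-well plates, five concentrations, linear interpolation of endpoints. The concentration for 50% growth inhibition is given as GI50.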 Calls of active or inactive are those of the source. Cut-off read from the data, not from the text of the source: active = GI50 up to about 1.1 µM and inactive = higher.

In the case of `CC(=O)Nc1c(C)cc2c(nc3n2CCC3O)c1[N+](=O)[O-]` (configuration not stated), the GI50 in the assay on IGROV-1, with NCI-H460, with UACC-257, in the assay with OVCAR-3, in the assay on CCRF-CEM and with SK-MEL-2 was > 100 µM (inactive) each time. The GI50 in the assay on HOP-92 was > 100 µM (inactive); in the assay with U-251 it was > 100 µM (inactive); in the assay on EKVX, > 100 µM (inactive); with HCT-15, greater than 100 µM; in the assay on ACHN it was > 100 µM (inactive); in the assay on OVCAR-4, > 100 µM (inactive). For the same compound, the GI50 in the assay with PC-3, in the assay on COLO 205, in the assay with LOX IMVI, in the assay on NCI-H226, in the assay with T47D and with A549 was > 100 µM (inactive) each time. In the assay on 786-0, the GI50 is > 100 µM (inactive).
Turning to `N#Cc1cc2c(cc1Cl)Sc1nccn1S2(=O)=O`, the GI50 was 6.38 µM (inactive) in the assay with IGROV-1; 9.53 µM (inactive) with NCI-H460; 2.21 µM (inactive) with UACC-257; 0.668 µM (active) with OVCAR-3; 0.506 µM (active) in the assay on CCRF-CEM; 3.74 µM (inactive) with SK-MEL-2. Further, the GI50 was 4.93 µM (inactive) in the assay on HOP-92; 1.6 µM (inactive) in the assay with U-251; 14.5 µM (inactive) in the assay on EKVX; 1.25 µM with HCT-15; 2.08 µM (inactive) in the assay with ACHN; 6.05 µM (inactive) in the assay on OVCAR-4. Moreover, the GI50 is 4 µM (inactive) in the assay on PC-3; 12.4 µM (inactive) in the assay on COLO 205; 1.57 µM (inactive) in the assay on LOX IMVI; 5.89 µM (inactive) in the assay on NCI-H226; 1.99 µM (inactive) in the assay on T47D; 12.8 µM (inactive) in the assay with A549. In the assay with 786-0, the GI50 is 14.8 µM (inactive).
As to `CC(C)NC(=O)OCc1c(COC(=O)NC(C)C)c(-c2cc[n+](COC(=O)C3CCCCC3)cc2)n2c1CCC2`, the GI50 in the assay on IGROV-1 was > 100 µM (inactive); in the assay with NCI-H460, 70 µM (inactive); in the assay with UACC-257, > 100 µM (inactive); in the assay with OVCAR-3 it was > 100 µM (inactive); in the assay with CCRF-CEM, 44.8 µM (inactive); with SK-MEL-2 it was > 100 µM (inactive). For the same compound, the GI50 with HOP-92 was > 100 µM (inactive); in the assay on U-251 it was > 100 µM (inactive); with EKVX, > 100 µM (inactive); in the assay with HCT-15 it was greater than 100 µM; with ACHN it was 44.9 µM (inactive); with OVCAR-4 it was > 100 µM (inactive). Moreover, the GI50 with PC-3, with COLO 205, in the assay with LOX IMVI, with NCI-H226, in the assay on T47D and with A549 was > 100 µM (inactive) each time. Moreover, the GI50 with 786-0 is > 100 µM (inactive).
With `Clc1ccc(OCc2nnc3sc(-c4ccc(-c5ccc(Cl)cc5Cl)o4)nn23)cc1`, the GI50 in the assay on IGROV-1 is > 100 µM (inactive); in the assay on NCI-H460, > 100 µM (inactive); in the assay on UACC-257, > 100 µM (inactive); in the assay on OVCAR-3 it was > 100 µM (inactive); with CCRF-CEM, > 100 µM (inactive); with SK-MEL-2, 50.6 µM (inactive). Also, the GI50 in the assay on HOP-92 was 36.9 µM (inactive); in the assay with U-251, 84.3 µM (inactive); with EKVX it was > 100 µM (inactive); in the assay on HCT-15, greater than 100 µM; with ACHN, > 100 µM (inactive); in the assay on OVCAR-4, > 100 µM (inactive). The GI50 in the assay with PC-3, in the assay on COLO 205, in the assay on LOX IMVI, in the assay with NCI-H226, in the assay with T47D and in the assay with A549 was > 100 µM (inactive) each time. Further, the GI50 in the assay on 786-0 was > 100 µM (inactive).
Consider `Cc1ccc(S(=O)(=O)n2ccn3c(=O)cc(C)nc23)cc1`, for which the GI50 in the assay with IGROV-1, with NCI-H460, in the assay on UACC-257, with OVCAR-3, in the assay with CCRF-CEM and in the assay on SK-MEL-2 was > 10 µM (inactive) throughout. The GI50 is > 10 µM (inactive) in the assay on HOP-92; > 10 µM (inactive) in the assay with U-251; > 10 µM (inactive) in the assay on EKVX; greater than 10 µM in the assay on HCT-15; > 10 µM (inactive) in the assay on ACHN; > 10 µM (inactive) with OVCAR-4. Further, the GI50 with PC-3, in the assay with COLO 205, in the assay with LOX IMVI, in the assay with NCI-H226, in the assay on T47D and in the assay with A549 was > 10 µM (inactive) each time. The GI50 in the assay with 786-0 is > 10 µM (inactive).
Take `CCCCCCCCCCCC[C@@H](O)[C@H]1CCC([C@H](O)CCCCC(=O)CCCCCCCC2=C[C@H](C)OC2=O)O1` (some centres not stated): the GI50 is > 50 µM (inactive) in the assay on IGROV-1; 2.26 µM (inactive) in the assay with NCI-H460; 7.96 µM (inactive) with UACC-257; > 50 µM (inactive) with OVCAR-3; 4.59 µM (inactive) with CCRF-CEM; > 26.1 µM (inactive) with SK-MEL-2. For the same compound, the GI50 in the assay on HOP-92 was > 27 µM (inactive); with U-251 it was 13.3 µM (inactive); with EKVX it was 14.1 µM (inactive); in the assay on HCT-15, 17.9 µM; with ACHN, > 33.6 µM (inactive); in the assay on OVCAR-4, > 24.9 µM (inactive). Moreover, the GI50 was 14.6 µM (inactive) in the assay on PC-3; 12.5 µM (inactive) in the assay on COLO 205; 2.34 µM (inactive) in the assay on LOX IMVI; 15.8 µM (inactive) with NCI-H226; 15.7 µM (inactive) in the assay on T47D; 10.4 µM (inactive) with A549. The GI50 in the assay with 786-0 is > 31.6 µM (inactive).
`N#CC1Cc2cc3c(cc21)OCO3` (configuration not stated): the GI50 in the assay with IGROV-1, in the assay on NCI-H460, in the assay on UACC-257, with OVCAR-3, in the assay with CCRF-CEM and in the assay on SK-MEL-2 was > 100 µM (inactive) each time. The GI50 was > 100 µM (inactive) in the assay on HOP-92; > 100 µM (inactive) in the assay on U-251; > 100 µM (inactive) with EKVX; greater than 100 µM in the assay on HCT-15; > 100 µM (inactive) in the assay with ACHN; > 100 µM (inactive) in the assay with OVCAR-4. The GI50 with PC-3, in the assay with COLO 205, in the assay with LOX IMVI, in the assay on NCI-H226, in the assay on T47D and with A549 was > 100 µM (inactive) throughout. Moreover, the GI50 with 786-0 was > 100 µM (inactive).
As to `C=CCn1cnc2c(O)nc(Nc3ccccc3)nc21`, the GI50 with IGROV-1, with NCI-H460, in the assay on UACC-257, with OVCAR-3, in the assay on CCRF-CEM and with SK-MEL-2 was > 100 µM (inactive) each time. For the same compound, the GI50 in the assay with HOP-92 was > 100 µM (inactive); in the assay with U-251, > 100 µM (inactive); in the assay on EKVX, > 100 µM (inactive); with HCT-15 it was greater than 100 µM; with ACHN it was > 100 µM (inactive); in the assay on OVCAR-4, > 100 µM (inactive). Moreover, the GI50 with PC-3, in the assay on COLO 205, with LOX IMVI, in the assay with NCI-H226, with T47D and with A549 was > 100 µM (inactive) throughout. For the same compound, the GI50 in the assay with 786-0 is > 100 µM (inactive).

(Values after ChEMBL document CHEMBL1201862, “PubChem BioAssay data set” (2004).)
